Measured values: US10792331B2, “Methods for reducing cardiotoxicity from chemotherapy by administering humanin analog compositions” (LOS ANGELES BIOMEDICAL RESEARCH INSTITUTE AT HARBOR-UCLA …, priority 2015, dated 2020)
Entries after “also recorded” stand apart in the source; their conditions may differ. Like-named read-outs stand apart in the source and are kept apart here. Ends that are not written are not given here.

How the values were obtained:
BAX = BAX (Homo sapiens, UniProt Q07812); conditions: cited from earlier work
cells = conditions: compared with HN; cited from earlier work
IGFBP-3 = IGFBP-3 (Homo sapiens, UniProt P17936); conditions: cited from earlier work
membrane receptor = conditions: cited from earlier work
[1] = tested on: DOX induced cardiotoxicity; assay: Example 2: echocardiogram ejection fraction, Dox, HNG and DRZ alone or in combinations; type: in vivo, mouse
Method: In this second experiment, adult male mice were used. These mice received for 8 weeks IP injections of saline daily (control), Doxorubicin (DOX 3 mg/week IP for 8 injections), HNG 5 mg/day IP), Dexrazoxane (DRZ 60 mg/week IP at the same time as Doxorubicin) either alone or in combinations as shown in FIG. 5. All animals received 8 weeks of injections.

[2] = tested on: uncoupling protein 2 (Ucp2); assay: Example 3: Ucp2 protein by ProteinSimple (Wes) assay in ventricle lysates; type: in vivo, mouse
Method: Left ventricle samples from mice were sonicated in RIPA buffer (Sigma) supplemented with EDTA-free protease inhibitor cocktail tablets (Roche), and cell debris removed by centrifugation. The protein concentration was analyzed by Bio-Rad Protein Assay and measured by Beckman Du-640 Spectrophotometer.
Protein measurement for the uncoupling protein 2 (Ucp2) was performed using ventricle tissue lysates from control, Dox only, Dox+HNG, Dox+DRZ, and Dox+HNG+DRZ treated mice. Protein expression was quantified by Wes Separation Module with 25 Capillary Cartridges for 12-230 kDa (Wes®). Proteins (4 microgram/sample) were separated through a size-resolving matrix in capillaries, immobilized to the inner capillary wall, incubated with anti-Ucp2 rabbit monoclonal antibody (Cell Signaling) at concentration of 1 μg/ml and anti-rabbit secondary antibodies before detection using chemiluminescence. Signals reflected as the area under the curve of Ucp2 protein were generated automatically at the end of the run. The Ucp2 protein levels were quantified by a ratio of the area under the curve from each sample that was normalized by the corresponding area under the curve of the corresponding total protein.

cardiac fibrosis [3] = assay: Example 3: Masson's Trichrome quantification of fibrosis in hearts; conditions: for cardiac fibrosis: compared to controls
[4] = cited from earlier work
[5] = tested on: Dox-induced cardiotoxicity mouse model; assay: Example 3: M-mode echocardiography of cardiac function
cardiomyocytes [6] = assay: Example 3: cardiomyocyte apoptosis by tropomyosin/TUNEL co-localization; conditions: for cardiomyocytes apoptosis: ten weeks, compared to control
[7] = tested on: Atrial Natriuretic Factor (ANF); assay: Example 3: real-time PCR of ANF transcripts in left ventricular tissue; conditions: for expression levels of ANF mRNA: heart, compared to control
[8] = mouse, in vivo
[9] = tested on: nuclear-gene-encoded mitochondrial gene expression; assay: Example 3: mitochondrial gene focused qRT-PCR array of mouse hearts
[10] = Example 3: outcome and general health (deaths, body weight, heart weight)
[11] = patients with cancer, cited from earlier work
[12] = tested on: DOX-induced cardiotoxicity; assay: Example 1: heart weight and echocardiogram in DOX ± HNG treated mice; type: in vivo, mouse
Method: The heart containing left and right ventricles were fixed with formalin for hematoxylin/eosin and trichrome staining and TUNEL to detect apoptotic cell. Heart sections were saved for immunohistochemistry. Pieces of left ventricle were fixed with gluteraldehyde for later mitochondria analysis by EM. Heart was snapped frozen and stored at −80 degrees (left and right atriums plus the rest of ventricles) for molecular studies (e.g. ANP/BNP).
Echocardiogram was performed on three mice from each group on day 32, and the rest of the mice on days 34 and 38. […] However when corrected for body weight, the heart: body weight ratio was not different among the groups (FIGS. 3A & 3B.)

[13] = Example 1: DOX ± HNG in B16 cell transplanted mice study, body weight and survival; conditions: for Body weight: B16 inoculated C57BL/6 male mice, DOX 5 mg/Kg weekly IP, HNG 5 mg/Kg daily IP
Method: Mouse B16 melanoma cells were cultured in 75 cm^2 flasks and incubated at 37° C. in a humidified chamber with 5% CO2 to generate enough cells for inoculating 10,000 cells/mouse×40 mice. After 5-7 days culture, B16 cells were collected and cell viability determined using the Trypan Blue stain and the number of living cells were counted under microscope.
Treatment Schedule: 7 weeks old C57BL/6 male mouse, control without tumor inoculation (n=6) and four other groups (n=10 each group) received B16 tumor cells (10,000/mouse) injection under the skin in the right flank. One group was not treated; another group received HNG IP injection, 5 mg/Kg BM, daily×40 days (HNG); the third group received Doxorubicin (DOX), IP injection, 5 mg/Kg BW, weekly×6 injections; and the last group DOX+HNG (Table 5).
The mice in the DOX treated group would receive 6 weekly injections of DOX and daily injection of HNG until Day 40. Body weights and tumor cell injection site were checked 3 times per week. Echocardiogram was scheduled at day 26 and repeated at day 40. Twenty four hours after echocardiogram examination, animals were sacrificed; whole blood, plasma, epididymis, heart, lung, testis, liver, spleen, kidney, intestine, muscle, skin, and femur bone were collected. Sperm in the cauda epididymis were counted and COMET assay for DNA damage of sperm assessed. Whole blood was collected for CBC analysis and plasma saved for measurement of HNG level or other bio-parameters. Testes were fixed in Bouin's or formaldehyde for immunohistochemistry and TUNEL analyses.

cardiac fibrosis [14] = conditions: mouse, in vivo
[15] = tested on: Dox-induced cardiotoxicity mouse model; conditions: in vivo
cardiomyocytes [16] = conditions: mouse, in vivo
[17] = tested on: Atrial Natriuretic Factor (ANF); conditions: mouse, in vivo
[18] = echocardiogram days 32-38, vs non-treated and HNG treated mice
[19] = 84 genes examined, threshold of 1.1 fold
[20] = positive up-regulation, negative down-regulation

IGFBP-3, sequence (P17936 28-291, species assumed): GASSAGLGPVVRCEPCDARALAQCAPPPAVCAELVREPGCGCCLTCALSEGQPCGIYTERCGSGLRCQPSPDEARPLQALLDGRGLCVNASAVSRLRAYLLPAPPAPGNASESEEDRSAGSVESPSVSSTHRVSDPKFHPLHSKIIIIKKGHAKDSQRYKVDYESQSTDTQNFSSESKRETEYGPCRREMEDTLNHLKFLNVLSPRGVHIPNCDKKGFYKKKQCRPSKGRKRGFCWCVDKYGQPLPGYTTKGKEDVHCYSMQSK
BAX, sequence (Q07812 whole entry, species assumed): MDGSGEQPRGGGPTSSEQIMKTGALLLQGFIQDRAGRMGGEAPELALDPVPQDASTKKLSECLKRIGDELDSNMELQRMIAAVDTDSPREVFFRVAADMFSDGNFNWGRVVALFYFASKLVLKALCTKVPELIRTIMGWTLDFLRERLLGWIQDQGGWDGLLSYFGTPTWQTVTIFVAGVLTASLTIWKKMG

HN-C8P: HN mutant, Cys8 to Pro (MAPRGFSPLLLLTSEIDLPVKRRA; UniProt Q8IVG9 1-24, looked up, variant C8P)
Characteristics: BAX binding (BAX): Loss of BAX binding | Cytoprotective Action (cells): Not effective, blocks intracellular

HN-F6A: HN mutant, Phe6 to Ala (MAPRGASCLLLLTSEIDLPVKRRA; UniProt Q8IVG9 1-24, looked up, variant F6A)
Characteristics: IGFBP-3 binding (IGFBP-3): Loss of IGFBP-3 binding | Cytoprotective Action (cells): Similar/more effective than HN

HN-L12A: HN mutant, Leu12 to Ala (MAPRGFSCLLLATSEIDLPVKRRA; UniProt Q8IVG9 1-24, looked up, variant L12A)
Cytoprotective Action (cells): HN antagonist, forms inactive

HN-S7A: HN mutant, Ser7 to Ala; MAPRGFACLLLLTSEIDLPVKRRA (SEQ ID NO: 35)
Characteristics: membrane receptor binding (membrane receptor): Loss of membrane receptor | Cytoprotective Action (cells): Not effective, prevents HN self-

C[C@@H](CN1CC(=O)NC(=O)C1)N1CC(=O)NC(=O)C1 [DRZ, Dexrazoxane]
DOX-induced decrease in EF, effect of co-treatment ([1]; DOX treated mice, HNG 5 mg/day IP, DRZ 60 mg/week IP): ameliorated | Ucp2 protein suppressed by Dox, effect of co-treatment ([2]; Dox-treated mice): significantly normalized Ucp2 protein suppressed by Dox to control levels | cardiac fibrosis (cardiac fibrosis [3]): no changes of fibrosis | Dox-induced cardiac fibrosis, effect of co-treatment (cardiac fibrosis [3]; in Dox-treated mice): did not reduce Dox-induced cardiac fibrosis | testicular toxicity ([4]; has been shown): induce testicular toxicity | significant adverse events ([4]; patients receiving high doses of anthracyclines): decreased granulocytes and platelets | Dox-induced cardiac dysfunction, protective effect ([5]; Dox-treated mice, summary): improved heart function impaired by Dox treatment | cardiac parameters (heart rate, LV posterior wall thickening, fractional shortening, ejection fraction) ([5]; without Dox, compared to controls across the treatment period): did not show any altered cardiac parameters | Dox-induced cardiomyocytes apoptosis, effect of co-treatment (cardiomyocytes [6]; Dox-treated mice, ten weeks after treatment): no markedly protective effect | cardiomyocytes apoptosis (cardiomyocytes [6]): did not induce significant levels of cardiomyocytes apoptosis | Dox-increased ANF expression, effect of addition ([7]; added to Dox-treated mice): returned expression of ANF to control levels | expression levels of ANF mRNA [7]: did not significantly altered ANF transcripts | body weight (BW) at the end of 10 weeks [8]: no significant adverse effect on body weight | Dox-induced Ucp2 and Ucp3 mRNA expression, effect of co-treatment ([9]; qRT-PCR, Dox-treated mice): reversed Dox-induced Ucp2 and Ucp3 mRNA expression to control levels | Dox-induced BW loss, effect of co-treatment ([10]; in Dox-treated mice): attenuated the Dox-induced BW loss

COc1cccc2c1C(=O)c1c(O)c3c(c(O)c1C2=O)C[C@@](O)(C(=O)CO)C[C@@H]3O[C@H]1C[C@H](N)[C@H](O)[C@H](C)O1 [DOX, Doxorubicin]
Ejection fraction (EF) ([1]; adult male mice, DOX 3 mg/week IP for 8 injections, FIG. 6): highly significant decrease in EF | incidence of congestive heart failure ([11]; cumulative dose of 400 mg/m^2): 3 to 5% | incidence of congestive heart failure ([11]; cumulative dose of 550 mg/m^2): 7 to 26% | Ucp2 protein expression ([2]; compared to control): significantly decreased Ucp2 protein expression | cardiac fibrosis (cardiac fibrosis [3]): significantly induced a cardiac fibrosis response | ejection fraction ([5]; 9.5 weeks after treatment): significantly decreased | fractional shortening ([5]; 9.5 weeks after treatment): significantly decreased | heart rate ([5]; 9.5 weeks after treatment): significantly decreased | left ventricle posterior wall thickening ([5]; 9.5 weeks after treatment): significantly decreased | time after Dox treatment until Dox-induced cardiac dysfunction occurred ([5]; accumulative dose of 24 mg/kg body weight in mice): ≥ 8 weeks | Heart weight ([12]; Example 1 mice at sacrifice): significantly lower than the non-treated and HNG treated mice; also recorded: smaller hearts than non-treated and HNG treated mice | ejection fraction [12, 18]: decrease in ejection fraction; also recorded: lower ejection fraction | fractional ventricular shortening [12, 18]: decrease; also recorded: lower fractional shortening | cardiomyocytes apoptosis (cardiomyocytes [6]): significantly increased cardiomyocytes apoptosis | Body weight [13]: started to lose weight at about day 8 to 10; also recorded: significant loss in weight; also recorded: decreased weight | Survival (mice survived / mice in group) ([13]; DOX halted after 4th injection, up to day 38-40): 4/10 | Body weight loss, DOX vs DOX+HNG ([13]; day 29, p<0.05): lost more weight than the mice treated with DOX+HNG; also recorded: losing significantly more weight | expression levels of ANF mRNA [7]: significantly increased | body weight (BW) at the end of 10 weeks [8]: significantly decreased body weight | number of genes down-regulated as compared to control [9, 19]: 5 genes | number of genes up-regulated as compared to control [9, 19]: 78 genes | number of genes upregulated as compared to control ([9]; 84 genes examined, threshold of 2-fold): 12 genes | Bbc3 Dox-induced gene expression (Fold changes as compared to control) [9, 20]: 3.27 Fold changes | Bcl2 Dox-induced gene expression (Fold changes as compared to control) [9, 20]: 2.23 Fold changes | Cox18 Dox-induced gene expression (Fold changes as compared to control) [9, 20]: 2.01 Fold changes | NefI Dox-induced gene expression (Fold changes as compared to control) [9, 20]: 3.07 Fold changes | Sfn Dox-induced gene expression (Fold changes as compared to control) [9, 20]: 2.55 Fold changes | Slc25a17 Dox-induced gene expression (Fold changes as compared to control) [9, 20]: 2.00 Fold changes | Slc25a20 Dox-induced gene expression (Fold changes as compared to control) [9, 20]: 2.53 Fold changes | Slc25a21 Dox-induced gene expression (Fold changes as compared to control) [9, 20]: 2.35 Fold changes | Slc25a22 Dox-induced gene expression (Fold changes as compared to control) [9, 20]: 3.12 Fold changes | Slc25a23 Dox-induced gene expression (Fold changes as compared to control) [9, 20]: 5.83 Fold changes | Ucp2 Dox-induced gene expression (Fold changes as compared to control) [9, 20]: 2.03 Fold changes | Ucp3 Dox-induced gene expression (Fold changes as compared to control) [9, 20]: 2.73 Fold changes | Ucp2 and Ucp3 mRNA expression ([9]; qRT-PCR, heart): increased Ucp2 and Ucp3 mRNA expression | mice died before the termination of the experiment ([10]; 10 mice per group, 10 weeks): three

MAPRGFSCLLLLTGEIDLPVKRRA [HNG]
cardiac fibrosis (cardiac fibrosis [14]): no changes of fibrosis | cardiac parameters (heart rate, LV posterior wall thickening, fractional shortening, ejection fraction) [15]: did not show any altered cardiac parameters | cardiomyocytes apoptosis (cardiomyocytes [16]): did not induce significant levels of cardiomyocytes apoptosis | expression levels of ANF mRNA [17]: did not significantly altered ANF transcripts | Body weight [13]: gained weight; also recorded: increased weight | body weight (BW) at the end of 10 weeks ([10]; surviving mice, compared to control): no significant adverse effect on body weight

HN-C8A: HN mutant, Cys8 to Ala; MAPRGFSALLLLTSEIDLPVKRRA (SEQ ID NO: 33)
Characteristics: membrane receptor binding (membrane receptor): Loss of membrane receptor | Cytoprotective Action (cells): Not effective, prevents HN self-
